US5422372A, “Method of increasing intracellular accumulation of hydrophilic anionic agents using gemfibrizol” (priority 1993, dated 1995)
Converted amounts (≈) assume the structure as drawn. “Also recorded” adds a separate entry of the source. Like-named read-outs stand apart in the source and are kept apart here.

Key:
[1] = tested on: organic anion transporters of J774 cells; type: cell-based, mouse
[2] = tested on: organic anion transporters of J774 cells; assay: Lucifer Yellow secretion (efflux) from J774 cells; type: cell-based, mouse
Experimental: Cells were incubated in D10 containing 0.5 mg/ml Lucifer Yellow and 5 mM ATP with or without 10 mM penicillin G. The cells were then washed and incubated in fresh medium at 37° C. At intervals, the cells were viewed by fluorescence microscopy.

[3] = tested on: Listeria monocytogenes in J774 cells; assay: Intracellular growth of Listeria monocytogenes in J774 cells; type: cell-based
Experimental: J774 cells grown in spinner culture were centrifuged for 5 min. at 1000 RPM. The cells were resuspended in fresh DME+5% HICS without antibiotics at a concentration of 2×10^5. 5 ml of this cell suspension was plated into each 60 mm Petri dish containing multiple 12×1 mm round coverslips (Fisher Scientific Co.) the evening before use to allow the cells to form monolayers on the coverslips. The cells were incubated overnight at 37° C.
L. monocytogenes was incubated overnight in BHI broth to a density of approximately 10^9 /ml in a shaker at 37° C. 1 ml of the bacterial suspension was sedimented in a microfuge tube (USA/Scientific Plastics, Ocala, Fla.) for 1 min at 8000 RPM. The supernatant was removed and the pellet was washed once in 1 ml of PBS at pH 7.4. The bacteria were then resuspended in 1 ml fresh DME+5% HICS, diluted in DME+5% HICS to a concentration of 2×10^5 bacteria per ml, and 5 ml of this suspension (10^6 bacteria total) was placed in each 60 mm dish containing a monolayer of J774 cells (infection ratio 1:1). The dishes were incubated at 35° C. for 60 minutes. The coverslip was then transferred to a new 60 mm petri dish containing 10 ml of pre warmed DME+5% HICS and 5 μg/ml of gentamicin. The cells were incubated in the gentamicin containing medium for 1 hr. at 35° C. to kill extracellular bacteria, as described by Portnoy et al. (9), at which time additional drugs were added as indicated below. One 60 mm dish received no addition (control). Other 60 mm dishes received Gemfibrozil (GFZ) (0.2 mM), and/or Norfloxacin (NFX) at 2, 4 or 8 μg per ml, as indicated. Drugs were added either separately or in combination to make four independent sets: No addition, GFZ alone, NFX alone, or GFZ+NFX. The cultures were further incubated at 35° C. Three coverslips containing the Listeria-infected J774 cells were harvested from each culture dish at 2 hours after infection and at 2 hour intervals thereafter. The number of bacteria in the J774 cells on each cover slip was determined by depositing each coverslip into 5 ml of sterile distilled water in a 15 ml Falcon tube. The tubes were vortexed for 15 sec. to lyse the infected cells and 10 or 50 μL of each Listeria-containing solution was plated onto 10 cm dishes containing LB agar. The LB agar plates were incubated at 37° C. overnight, the bacterial colonies were counted, and the number of bacteria per cover slip was calculated from the number of colonies on the agar. Every data point represents the average of the number of bacterial colonies recovered from three coverslips.

[4] = tested on: organic anion transporters of J774 cells; assay: Intracellular Lucifer Yellow accumulation during ATP permeabilization of J774 cells; type: cell-based, mouse; conditions: for effect on intracellular accumulation of Lucifer Yellow during ATP permeabilization: added together with 0.5 mg/ml Lucifer Yellow and 5 mM ATP
Experimental: The cells were incubated in phosphate buffered saline with divalent cations (PBS) containing 0.5 mg/ml Lucifer Yellow, 5 mM ATP and other compounds, at 37° C. as indicated in the text. The wells were washed with cold phosphate buffered saline without divalent cations (PD) 3 times, and plates were immersed successively in three beakers containing 1,000 ml cold PD. The first beaker also contained 0.1% bovine serum albumin. The cells then were lysed in 0.05% Triton X-100, and fluorescence was measured in a fluorescence spectrophotometer using an excitation wavelength of 430 nm and an emission wavelength 540 nm. Total cell protein was measured by a modification of the Lowery method. (6) Results were expressed as ng Lucifer Yellow/mg protein.
An assay to identify competitive inhibitors of the organic anion transporters that mediate the secretion of Lucifer Yellow was developed. It was reasoned that any substrate of the organic anion transporter small enough to enter the cells through ATP-induced pores, when added together with Lucifer Yellow during ATP permeabilization, would compete with Lucifer Yellow for efflux and cause higher intracellular accumulation of Lucifer Yellow. This assay was used to determine whether various substrates for other organic anion transporters competed with Lucifer Yellow for secretion by J774 cells.

L. monocytogenes [5] = assay: Extracellular growth assay: minimum bacteriocidal concentration (MBC); type: cell-based; conditions: Listeria monocytogenes; brain-heart infusion broth; read-out: NFX concentration bacteriocidal for LM (MBC)
Experimental: 10 μl of the contents of each sample from the MIC assay described above was plated on 10 cm plates containing 20 ml. LB, agar, and the plates were incubated overnight at 25° C., 30° C. and 35° C. The number of colonies were counted.

[6] = tested on: organic anion transporters of J774 cells; type: cell-based, mouse; conditions: for intracellular accumulation of radiolabel from [3H] norfloxacin: J774 cells incubated with [3H] norfloxacin and the inhibitor
Experimental: [^3 H]-Norfloxacin Retention in J774 Cells: J774 cells were prepared as above. The cells were incubated in PBS with 1.5 μCi/ml [^3 H] norfloxacin in the presence or absence of 10 mM probenecid for various lengths of time, washed and lysed. Cell-associated radioactivity and protein were quantitated as above.

L. monocytogenes [7] = assay: Extracellular growth assay: minimum inhibitory concentration (MIC); type: cell-based; conditions: Listeria monocytogenes; brain-heart infusion broth; read-out: NFX concentration that blocked growth of LM (MIC)
Experimental: L. monocytogenes were inoculated into 1 ml of BHI broth and grown overnight in BHI broth to a density of approximately 10^9 bacteria per ml, diluted to a concentration of 2×10^3 bacteria per ml in Brain Heart Infusion Broth, and 0.5 ml aliquots of this suspension were placed in separate tubes. Norfloxacin (NFX) at the indicated concentrations in 0.5 ml BHI broth was added to the tubes containing L. monocytogenes, and the bacteria were incubated overnight at 25° C., 30° C. and 35° C. The MIC of NFX for L. monocytogenes was determined by visual inspection (tubes without antibiotic, in which the bacteria grew contained a cloudy suspension).

[8] = tested on: organic anion transporters of J774 cells; conditions: cited from earlier work; for effect on intracellular sequestration and secretion of Lucifer Yellow: macrophages and J774 cells
[9] = tested on: organic anion transporters of J774 cells
Toxicity to J774 cells = type: cell-based; conditions: mouse, read-out: concentrations toxic to the cells
J774 cells = assay: Uptake of [14C] penicillin G by adherent J774 cells from extracellular medium; type: cell-based, mouse; conditions: even in the presence of 10 mM probenecid
Experimental: It was then questioned whether penicillin G was taken up by J774 cells from the extracellular medium, and whether this uptake was affected by organic anion transporters. In these experiments, adherent J774 cells were incubated in medium containing [^14 C] penicillin G, the cells were washed, and intracellular radiolabel was measured.

## Cc1ccc(C)c(OCCCC(C)(C)C(=O)O)c1 [GFZ, 5-(2,5-dimethylphenoxy)-2,2-dimethylpentanoic acid]
[1]; 0.2 mM GFZ
  enhancement of intracellular accumulation of NFX: four-fold
[1]; J774 cells, read-out: ED50 for enhancing intracellular accumulation of [3H]NFX
  EC50: 15 µM
[1]; [3H]NFX accumulation by J774 cells
  ED50 lower than the ED50 of PB or sulfinpyrazone: 30 fold
[2]
  concentration inhibiting Lucifer Yellow secretion relative to PB: ten-fold lower concentration than PB
[3]; 0.2 mM GFZ alone
  intracellular growth of LM in J774 cells: has no effect on the rate or extent of growth; also recorded: does not inhibit growth

## NC(=O)c1cnccn1 [pyrazinamide]
[4]
  effect on intracellular accumulation of Lucifer Yellow during ATP permeabilization: had no effect

## CCn1cc(C(=O)O)c(=O)c2cc(F)c(N3CCNCC3)cc21 [NFX, Norfloxacin]
L. monocytogenes [5]
  MBC: 8 µg/mL (≈ 25.1 µM)
[6]
  time at which intracellular norfloxacin concentration reached plateau: ≤ 10 min
[3]; 2 μg/ml NFX alone
  intracellular growth of LM in J774 cells: little inhibitory effect; also recorded: slowed intracellular growth
[3]; 4 μg/ml NFX alone
  intracellular growth of LM in J774 cells: marked inhibition of intracellular growth; also recorded: bacteriostatic
[3]; 8 μg/ml NFX alone
  intracellular growth of LM in J774 cells: bacteriostatic effect
L. monocytogenes [7]
  MIC: 4 µg/mL (≈ 12.5 µM)

## O=C(O)[C@H](O)[C@@H](O)[C@H](O)[C@H](O)CO [Gluconic acid]
[1]; 10 mM gluconic acid compared with norfloxacin only in PBS
  effect on intracellular norfloxacin concentration: did not affect
[4]
  effect on intracellular accumulation of Lucifer Yellow during ATP permeabilization: had no effect

## CCCN(CCC)S(=O)(=O)c1ccc(C(=O)O)cc1 [probenecid, Probenecid]
[8]
  effect on intracellular sequestration and secretion of Lucifer Yellow: inhibit both intracellular sequestration and secretion of Lucifer Yellow
[9]; after 30 minutes, in the presence of 10 mM probenecid
  intracellular penicillin secreted from the cells: 37%
[1]; 10 mM probenecid 30 minutes, then washed
  reversibility of the effect on norfloxacin retention: reversible
[1]; 30 minutes, J774 cells, read-out: ED50 for enhancing intracellular retention of norfloxacin
  EC50: 500 µM
[1]; steady state after removal of 10 mM probenecid
  [3H] norfloxacin remaining in cells after probenecid removal relative to cells never incubated in probenecid: twice
[6]
  intracellular accumulation of radiolabel from [3H] norfloxacin: marked increase
[6]; in the presence of 10 mM probenecid
  time at which intracellular norfloxacin concentration reached plateau: 30 min
[6]; j774 cells, 10000 µM
  enhancement of intracellular accumulation of norfloxacin: 3-4 fold
[4]; 5-10 mM probenecid in medium with Lucifer Yellow and ATP
  increase of intracellular retention of Lucifer Yellow: 2.5 fold
[2]
  concentrations that block secretion of Lucifer Yellow, penicillin and Norfloxacin: 2 to 5 mM

## NNC(=O)NN1C(=O)c2cc(S(=O)(=O)O)cc3c(N)c(S(=O)(=O)O)cc(c23)C1=O [Lucifer Yellow]
[8]; within 30 minutes after ATP-mediated permeabilization
  dye secreted by the cells into the medium: 80-85%

## O=C1C(CC[S+]([O-])c2ccccc2)C(=O)N(c2ccccc2)N1c1ccccc1 (centres unmarked) [sulfinpyrazone]
[8]
  effect on intracellular sequestration and secretion of Lucifer Yellow: inhibit both intracellular sequestration and secretion of Lucifer Yellow
[1]; 30 minutes, J774 cells
  ED50 for enhancing intracellular retention of norfloxacin (in words): essentially the same as that for probenecid
Toxicity to J774 cells
  MCC: > 2.5 mM
[6]
  intracellular accumulation of radiolabel from [3H] norfloxacin: marked increase
[2]
  concentrations that block secretion of Lucifer Yellow, penicillin and Norfloxacin: 2 to 5 mM

## CC1(C)S[C@@H]2[C@H](NC(=O)Cc3ccccc3)C(=O)N2[C@H]1C(=O)O [penicillin G]
[9]
  penicillin originally inside the cells secreted into the medium: about 80%
[1]; preloaded with 10 mM by ATP-permeabilization, compared with 10 mM gluconic acid preload
  accumulation of [3H] norfloxacin in preloaded cells: significant increase
[4]
  effect on intracellular accumulation of Lucifer Yellow during ATP permeabilization: increase Lucifer Yellow retention in a dose-dependent manner
[2]; 10 mM penicillin G, fluorescence microscopy
  rate of Lucifer Yellow efflux after co-loading by ATP permeabilization: reduced the rate of Lucifer Yellow afflux
J774 cells
  intracellular radiolabel after incubation with [14C] penicillin G without ATP permeabilization: could not be readily detected
